How the values were obtained:
[1] = test system: kainate (KA) mouse model of chronic temporal lobe epilepsy; assay: Telemetric EEG recording of spontaneous seizures in kainate (KA) mouse model of chronic temporal lobe epilepsy; format: in vivo, C57BL/6j male mice; conditions: for Seizure duration / Seizure frequency: 200 mg/kg i.p. single injection, n = 5
Description: Six weeks old C57BL/6j male mice were injected unilaterally with kainate (KA; 0.05 μl, 20 mM in saline) at a rate of 0.5 μl/min in the CA1 area of the right hippocampus (−2 mm anteroposterior, +1.5 mm lateral, −1.4 mm dorso-ventral) by mean of a stereotaxic apparatus and a cannula (0.29 mm diameter) connected to a precision pump. Mice were then left 3 weeks for settling of the chronic epileptic phenotype.
EEG experiments were carried out using wireless ETA-F 10 transmitters (DataSciences International, USA) for chronic EEG recording and video monitoring 3 weeks after KA injection. After anesthesia (ketamine, 95 mg/kg; xylazine, 10 mg/kg; i.p.), a 1 cm midline sagittal incision was made starting above the skull midline and extending along the neck to create a pocket for subcutaneous placement of the transmitter along the dorsal flank of the animal. The recording flexible electrodes (stereotaxic coordinates: −2 mm anteroposterior, +1.5 mm and −1.5 mm lateral) were implanted subdurally through small holes drilled in the skull and held in place with dental cement. Mice were implanted with wireless ETA-F10 transmitters 2 weeks after the KA injection and were allowed to recover for 7 days before recording.
EEG signal was collected through DSI radiofrequency receivers placed under each cage. EEG data were acquired at a sampling rate of 200 Hz using the DSI Dataquest A.R.T. system (version 4.33). To assess therapeutic potential of probenecid, KA mice were recorded with ETA-F10 DSI EEG electrodes for 48 h in their home cage, injected with probenecid (200 mg/kg in corn oil, Sigma-Aldrich; i.p.) and recorded for 24 hours post-treatment. Analysis of seizures was performed using the NeuroScore software (Data Sciences International, USA); seizures were detected on the EEG as spike trains with a minimal amplitude of 1.5× baseline and a minimal duration of 5 s at a frequency ≥1 Hz (Bergstrom et al., Sci Rep. 2013; 3:1483. doi: 10.1038/srep01483). Artifacts were automatically detected using a high detection threshold and removed manually.
To further assess the therapeutic potential of probenecid, we tested the in vivo effect of probenecid i.p. in a kainate (KA) mouse model of chronic temporal lobe epilepsy. To do so, electroencephalogram (EEG) of KA mice were recorded before (48 hours) and after (24 hours) probenecid administration (200 mg/kg) (FIG. 1C).

[2] = test system: human epileptic cortical slices; assay: Multi-electrode array (MEA) recordings of ictal-like discharges in human epileptic cortical slices in pro-epileptic conditions; format: cell-based
Description: The resected cortical block was prepared according to Dossi et al. (J Vis Exp. 2014 Oct. 26; (92):e51870). Briefly, post-surgical tissue was transported in a cold solution containing (in mM) 250 D-sucrose, 25 NaHCO3, 3 KCl, 1 CaCl2, 10 MgCl2 and 10 D-glucose, and oxygenated with carbogen (95% O2 and 5% CO2). Meninges, blood clots and vessels were gently removed and transverse cortical slices (400 μm-thick) were cut with a vibratome (HM650V, Microm Microtech, France). They were maintained at 37° C., equilibrated with 95% 02 and 5% CO2, in an interface chamber, continuously perfused with an artificial cerebro-spinal fluid (ACSF) containing (in mM) 124 NaCl, 3 KCl, 26 NaHCO3, 1.6 CaCl2, 1.3 MgCl2 and 10 D-glucose at 2 ml/min, for at least 1 hour before recording.
Cortical slices were transferred on planar MEA petri dishes (200-30 ITO electrodes, organized in a 12×12 matrix, with internal reference, 30 μm diameter and 200 μm inter-electrode distance; Multichannel Systems, Germany). They were kept in place using a platinum anchor and continuously perfused at a rate of 5-6 ml/min with ACSF.
Pictures of cortical slices on MEAs were acquired with a video microscope table (MEA-VMT1; Multichannel Systems, Germany) through MEA_Monitor software (Multichannel Systems, Germany) to identify the location of the electrodes relatively to the pial surface of the slices. Data were sampled at 10 kHz and the slice activity was recorded at 37° C. by a MEA2100-120 system (bandwidth 1-3000 Hz, gain 5×; Multichannel Systems, Germany) through MC_Rack 4.5.1 software (Multichannel systems, Germany) The activity of the slices was recorded in ACSF containing (in mM) 124 NaCl, 3 KCl, 26 NaHCO3, 1.6 CaCl2, 1.3 MgCl2 and 10 D-glucose (Ct ACSF) and in high potassium, magnesium-free pro-epileptic ACSF containing (in mM) 6 KCl, 0 Mg^2+ (6K 0Mg-ACSF).
To investigate whether probenecid medication could be used as a treatment for epileptic seizures, the electrophysiological activity of human epileptic cortical slices was recorded in pro-epileptic conditions, before and after probenecid administration (1 mM, 30 minutes).

[3] = 20-24 hours post-treatment, single injection 200 mg/kg i.p.
[4] = probenecid 1 mM, 30 minutes, pro-epileptic ACSF (6K 0Mg), n = 6 slices

## CCCN(CCC)S(=O)(=O)c1ccc(C(=O)O)cc1 [Probenecid, 4-(dipropylsulfamoyl)benzoic acid]
[1]; 4-8 h post-treatment
  Seizure duration: no seizure detected
  Seizure frequency: no seizure detected
[1]; 4 to 8 hours post-treatment, single injection 200 mg/kg i.p., in all mice tested
  Effect on spontaneous seizures: completely blocked
[1]; [3]
  Duration of reappeared seizures versus pre-treatment: significantly shorter duration
  Mice in which seizures reappeared: 2 of 5
[1]; 20-24 h post-treatment
  Seizure duration: 3.6 ± 2.25 s
  Seizure frequency: 1.2 ± 0.97 seizure/4 h
[2]; PBN 1 mM, 30 min, PIDs do not disappear
  Effect on IDs (FIG. 1A example recording): disappear
[2]; probenecid 1 mM, 30 minutes
  human cortical slices in which ictal-like discharges (IDs) were fully inhibited: 5 out of 6
[2]; [4]
  ID duration: 7.59 ± 7.59 s
  ID frequency: 0.03 ± 0.03 IDs/min
[2]; probenecid 1 mM, 30 minutes, the one slice not fully inhibited
  ID duration in the remaining slice: halved

Source: patent US12318358B2, “Probenecid for use in treating epileptic diseases, disorders or conditions” (PARIS SCIENCES ET LETTRES—QUARTIER LATIN, priority 2017, dated 2025)
